Experiments:
[1] = HLM incubation, decreasing thereafter
[2] = BTX-2 5 μM, 60 min incubations with HLM and fish microsomes
[3] = GSH conjugation of BTX-2 with active RSN2 microsomes and 100 μM GSH; assay type: in vitro ADME, Lutjanus campechanus
[4] = GSH conjugation of BTX-2 with deactivated RSN2 microsomes and 100 μM GSH; assay type: in vitro ADME, Lutjanus campechanus
[5] = Chemical GSH conjugation of BTX-2 without microsomes; assay type: physicochemical
[6] = RSN1 control without NADPH regeneration system

Substance: 41,43-dihydro-BTX-2 [Compound 2b]
- time at which the metabolite reached a maximum [1]: about 15 min

Substance: 41,43-dihydro-BTX-B5 [Compound 5d]
- occurrence of the metabolite across microsomal incubations [2]: only produced by HLM

Substance: 41,43-dihydro-BTX-B5 [Compound 5e]
- occurrence of the metabolite across microsomal incubations [2]: only produced by HLM

Substance: A-ring hydrolyzed BTX-3 [Compound 6a]
- occurrence of the metabolite across microsomal incubations [2]: produced in all fish microsomes and in HLM

Substance: BTX-2-GSH [Compound 12]
- formation rate of BTX-2-GSH [3]: 0.18 min⁻¹
- formation rate of BTX-2-GSH [4]: 0.46 min⁻¹
- formation rate of BTX-2-GSH [5]: 0.46 min⁻¹

Substance: BTX-9 [Compound 3]
- metabolite formation where the NADPH regeneration system was excluded [6]: not formed

Substance: Hydroxyl BTX-2 (rings A-E) [Compound 4b]
- occurrence of the metabolite across microsomal incubations [2]: occurred mainly in the two Lutjanid species

Reference: article PMC10362319 (Toxicon: X, 2023)
